14 compounds from ChEMBL document CHEMBL2429777, “Synthesis and antibacterial activity evaluation of 2,6-bis(6-substituted-1,2,4-triazolo[3,4-b][1,3,4]thiadiazol-3-yl)pyridine derivatives” (2013) can be followed below.

≈ marks a conversion by molar mass, not a printed value. Where only a bound is given, the exact number is not on record here.

For assay [1], the system named is Pseudomonas aeruginosa. Kind of assay: Antibacterial activity against Pseudomonas aeruginosa at 250 ug/tube after 24 hrs by cylinder-plate method. The format is functional.
The subject of assay [2] is Escherichia coli. As to the kind of experiment: Antibacterial activity against Escherichia coli at 250 ug/tube after 24 hrs by cylinder-plate method. In kind it is functional.
The subject of assay [3] is Staphylococcus aureus. Kind of assay: Antibacterial activity against Staphylococcus aureus by serial dilution method. The format is functional.
Assay [4] relates to Staphylococcus aureus. As to the kind of experiment: Antibacterial activity against Staphylococcus aureus at 250 ug/tube after 24 hrs by cylinder-plate method. The format is functional.
Assay [5] relates to Streptococcus pneumoniae. Kind of assay: Antibacterial activity against Streptococcus pneumoniae by serial dilution method. The format is functional.
In assay [6] the test system is Pseudomonas aeruginosa. As to the kind of experiment: Antibacterial activity against Pseudomonas aeruginosa by serial dilution method. The format is functional.
Assay [7] concerns Bacillus subtilis. As to the kind of experiment: Antibacterial activity against Bacillus subtilis by serial dilution method. The format is functional.
Assay [8] concerns Streptococcus pneumoniae. As to the kind of experiment: Antibacterial activity against Streptococcus pneumoniae at 250 ug/tube after 24 hrs by cylinder-plate method. In kind it is functional.
Assay [9] has as its system Bacillus subtilis. As to the kind of experiment: Antibacterial activity against Bacillus subtilis at 250 ug/tube after 24 hrs by cylinder-plate method. The format is functional.
Assay [10] has as its system Escherichia coli. As to the kind of experiment: Antibacterial activity against Escherichia coli by serial dilution method.
Assay [11] concerns Streptococcus pneumoniae. Kind of assay: Antibacterial activity against Streptococcus pneumoniae at 100 ug/tube after 24 hrs by cylinder-plate method. In kind it is functional.
Assay [12] concerns Bacillus subtilis. As to the kind of experiment: Antibacterial activity against Bacillus subtilis at 100 ug/tube after 24 hrs by cylinder-plate method. In kind it is functional.
Assay [13] has as its system Pseudomonas aeruginosa. As to the kind of experiment: Antibacterial activity against Pseudomonas aeruginosa at 100 ug/tube after 24 hrs by cylinder-plate method. In kind it is functional.
Assay [14] has as its system Escherichia coli. Kind of assay: Antibacterial activity against Escherichia coli at 100 ug/tube after 24 hrs by cylinder-plate method. In kind it is functional.
Assay [15] deals with Staphylococcus aureus. Kind of assay: Antibacterial activity against Staphylococcus aureus at 100 ug/tube after 24 hrs by cylinder-plate method. In kind it is functional.

In general, MIC refers to the least concentration at which growth counts as inhibited. A low value points to a more susceptible organism. Regarding `Ic1cccc(-c2nn3c(-c4cccc(-c5nnc6sc(-c7cccc(I)c7)nn56)n4)nnc3s2)c1`, the “diameter of the inhibition zone (DIZ)” value came to 15 mm in assay [1]; 18 mm in [2]; 16 mm in assay [4]; 14 mm in [8]; 14 mm in [9]. Further, the MIC in assay [3] came out at 32 µg/mL (≈ 43.8 µM); in [5], 64 µg/mL (≈ 87.5 µM); in assay [6], 64 µg/mL (≈ 87.5 µM); in assay [7], 64 µg/mL (≈ 87.5 µM); in [10], 32 µg/mL (≈ 43.8 µM).
Take `COc1ccc(-c2nn3c(-c4cccc(-c5nnc6sc(-c7ccc(OC)cc7)nn56)n4)nnc3s2)cc1`: the “diameter of the inhibition zone (DIZ)” value in assay [1] was 12 mm; in [2] it was 16 mm; in assay [4], 14 mm; in assay [8], 14 mm; in [9] it was 14 mm. Further, the minimum inhibitory concentration (MIC) in assay [3] is 64 µg/mL (≈ 119 µM); in assay [5] it was 64 µg/mL (≈ 119 µM); in assay [6], 128 µg/mL (≈ 237 µM); in assay [7], 64 µg/mL (≈ 119 µM); in assay [10], 32 µg/mL (≈ 59.3 µM).
For the compound `c1cncc(-c2nn3c(-c4cccc(-c5nnc6sc(-c7cccnc7)nn56)n4)nnc3s2)c1`, the “diameter of the inhibition zone (DIZ)” value in [1] stood at 13 mm; in assay [2], 14 mm; in assay [4] it was 12 mm; in [8] it was 13 mm; in assay [9] it was 11 mm. In addition, the MIC in [3] worked out at 128 µg/mL (≈ 266 µM); in [5], 128 µg/mL (≈ 266 µM); in assay [6], 128 µg/mL (≈ 266 µM); in [7] it was 128 µg/mL (≈ 266 µM); in [10] it was 64 µg/mL (≈ 133 µM).
With `Clc1cccc(-c2nn3c(-c4cccc(-c5nnc6sc(-c7cccc(Cl)c7)nn56)n4)nnc3s2)c1`, the “diameter of the inhibition zone (DIZ)” value in assay [1] worked out at 14 mm; in assay [2], 15 mm; in assay [4], 14 mm; in assay [8], 16 mm; in [9], 13 mm. The MIC was 64 µg/mL (≈ 117 µM) in [3]; 32 µg/mL (≈ 58.3 µM) in [5]; 64 µg/mL (≈ 117 µM) in assay [6]; 64 µg/mL (≈ 117 µM) in [7]; 64 µg/mL (≈ 117 µM) in [10].
On to GENTAMICIN, for which the MIC was found to be 2 µg/mL in [3], 2 µg/mL in assay [5], 1 µg/mL in assay [6] and 2 µg/mL in assay [7]. In addition, the results for the inhibition zone (IZ) in assay [11] and in assay [12] were 21 mm and 22 mm, respectively.
Regarding `O=[N+]([O-])c1ccc(-c2nn3c(-c4cccc(-c5nnc6sc(-c7ccc([N+](=O)[O-])cc7)nn56)n4)nnc3s2)cc1`, the “diameter of the inhibition zone (DIZ)” value in assay [1] is recorded as 12 mm; in [2], 15 mm; in assay [4], 13 mm; in [8], 15 mm; in assay [9] it was 11 mm. For the same compound, the MIC in [3] came out at 128 µg/mL (≈ 225 µM); in assay [5], 64 µg/mL (≈ 112 µM); in assay [6] it was 128 µg/mL (≈ 225 µM); in assay [7] it was 128 µg/mL (≈ 225 µM); in assay [10], 64 µg/mL (≈ 112 µM).
With `Clc1ccc(-c2nn3c(-c4cccc(-c5nnc6sc(-c7ccc(Cl)cc7)nn56)n4)nnc3s2)cc1`, the “diameter of the inhibition zone (DIZ)” value was 15 mm in assay [1]; 17 mm in assay [2]; 15 mm in [4]; 16 mm in assay [8]; 14 mm in assay [9]. Moreover, the MIC was found to be 32 µg/mL (≈ 58.3 µM) in assay [3]; 32 µg/mL (≈ 58.3 µM) in assay [5]; 32 µg/mL (≈ 58.3 µM) in [6]; 64 µg/mL (≈ 117 µM) in [7]; 32 µg/mL (≈ 58.3 µM) in [10].
Regarding `c1cc(-c2nnc3sc(-c4ccncc4)nn23)nc(-c2nnc3sc(-c4ccncc4)nn23)c1`, the “diameter of the inhibition zone (DIZ)” value stood at 13 mm in assay [1]; 14 mm in [2]; 12 mm in assay [4]; 13 mm in assay [8]; 10 mm in [9]. Also, the MIC in assay [3] is 128 µg/mL (≈ 266 µM); in [5], 128 µg/mL (≈ 266 µM); in assay [6] it was 128 µg/mL (≈ 266 µM); in assay [7], over 128 µg/mL; in assay [10] it was 64 µg/mL (≈ 133 µM).
As to `CC1(C)S[C@@H]2[C@H](NC(=O)[C@H](N)c3ccccc3)C(=O)N2[C@H]1C(=O)[O-].[Na+]` [AMPICILLIN SODIUM], the “diameter of the inhibition zone (DIZ)” value in assay [13] is 17 mm; in assay [14] it was 17 mm; in [11], 18 mm; in assay [12], 21 mm; in assay [15], 23 mm. The MIC in assay [3] was 1 µg/mL; in [5] it was 2 µg/mL; in assay [6], 2 µg/mL; in assay [7] it was 0.5 µg/mL.
As to `c1cc(-c2nnc3sc(-c4ccco4)nn23)nc(-c2nnc3sc(-c4ccco4)nn23)c1`, the “diameter of the inhibition zone (DIZ)” value came to 15 mm in assay [1]; 15 mm in [2]; 14 mm in [4]; 12 mm in assay [8]; 12 mm in [9]. The MIC in assay [3] is 64 µg/mL (≈ 139 µM); in assay [5] it was 128 µg/mL (≈ 279 µM); in assay [6], 32 µg/mL (≈ 69.6 µM); in assay [7] it was 128 µg/mL (≈ 279 µM); in assay [10] it was 64 µg/mL (≈ 139 µM).
As to `Cc1ccc(-c2nn3c(-c4cccc(-c5nnc6sc(-c7ccc(C)cc7)nn56)n4)nnc3s2)cc1`, the “diameter of the inhibition zone (DIZ)” value in assay [1] is reported as 10 mm; in [2], 14 mm; in assay [4], 13 mm; in [8], 13 mm; in assay [9] it was 10 mm. For the same compound, the MIC in assay [3] was 128 µg/mL (≈ 252 µM); in assay [5] it was 128 µg/mL (≈ 252 µM); in assay [6] it was over 128 µg/mL; in [7] it was over 128 µg/mL; in [10] it was 64 µg/mL (≈ 126 µM).
Take `c1ccc(-c2nn3c(-c4cccc(-c5nnc6sc(-c7ccccc7)nn56)n4)nnc3s2)cc1`: the “diameter of the inhibition zone (DIZ)” value in assay [1] is 10 mm; in assay [2] it was 12 mm; in assay [4] it was 12 mm; in assay [8], 12 mm; in assay [9], 10 mm. The MIC in assay [3] is 128 µg/mL (≈ 267 µM); in assay [5], 128 µg/mL (≈ 267 µM); in [6], over 128 µg/mL; in [7] it was over 128 µg/mL; in assay [10], 128 µg/mL (≈ 267 µM).
As to `O=[N+]([O-])c1cccc(-c2nn3c(-c4cccc(-c5nnc6sc(-c7cccc([N+](=O)[O-])c7)nn56)n4)nnc3s2)c1`, the “diameter of the inhibition zone (DIZ)” value in [1] worked out at 12 mm; in [2] it was 14 mm; in [4], 13 mm; in assay [8] it was 14 mm; in assay [9] it was 11 mm. The MIC was 128 µg/mL (≈ 225 µM) in [3]; 64 µg/mL (≈ 112 µM) in assay [5]; 128 µg/mL (≈ 225 µM) in [6]; 128 µg/mL (≈ 225 µM) in assay [7]; 64 µg/mL (≈ 112 µM) in assay [10].
With `Cc1nn2c(-c3cccc(-c4nnc5sc(C)nn45)n3)nnc2s1`, the “diameter of the inhibition zone (DIZ)” value amounted to 12 mm in assay [1]; 14 mm in assay [2]; 12 mm in assay [4]; 12 mm in assay [8]; 10 mm in assay [9]. Moreover, the MIC in assay [3] is 128 µg/mL (≈ 360 µM); in assay [5], 128 µg/mL (≈ 360 µM); in [6], 128 µg/mL (≈ 360 µM); in [7], over 128 µg/mL; in assay [10], 64 µg/mL (≈ 180 µM).
